From paper PMC2096555 (Purinergic Signalling, 2005)
Where “and” joins values, the source holds several entries; their conditions need not be identical. Identical values can stand only once.

Legend:
[1] = tested on: mouse NTPDase3; settings: read-out: Reported Km mouse NTPDase3; ATP; cited from earlier work
[2] = tested on: recombinant rat NTPDase1; settings: read-out: Reported Km recombinant rat NTPDase1; ATP; cited from earlier work
[3] = tested on: mouse NTPDase2; settings: read-out: Reported Km mouse NTPDase2; ATP; no reference given; cited from earlier work
[4] = molecular target: T1, rat NTPDase1 (Rattus norvegicus, UniProt P97687); format: biochemical
T1 sequence (P97687 1-511): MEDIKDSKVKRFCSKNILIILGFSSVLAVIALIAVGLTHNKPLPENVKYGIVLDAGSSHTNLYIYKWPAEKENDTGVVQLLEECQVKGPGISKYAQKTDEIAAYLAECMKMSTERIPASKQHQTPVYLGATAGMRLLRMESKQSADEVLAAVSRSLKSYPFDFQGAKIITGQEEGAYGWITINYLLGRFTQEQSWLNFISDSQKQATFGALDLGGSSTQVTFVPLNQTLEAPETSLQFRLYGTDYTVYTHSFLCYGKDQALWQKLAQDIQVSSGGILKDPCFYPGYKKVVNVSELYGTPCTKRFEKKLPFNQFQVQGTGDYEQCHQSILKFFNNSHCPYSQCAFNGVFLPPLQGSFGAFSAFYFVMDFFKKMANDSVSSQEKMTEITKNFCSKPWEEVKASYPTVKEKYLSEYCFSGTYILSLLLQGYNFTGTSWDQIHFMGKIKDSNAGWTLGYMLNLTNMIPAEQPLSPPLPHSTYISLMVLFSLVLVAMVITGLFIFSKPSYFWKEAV

[5] = molecular target: T2, rat NTPDase2 (Rattus norvegicus, UniProt O35795); format: biochemical
T2 sequence (O35795 1-495): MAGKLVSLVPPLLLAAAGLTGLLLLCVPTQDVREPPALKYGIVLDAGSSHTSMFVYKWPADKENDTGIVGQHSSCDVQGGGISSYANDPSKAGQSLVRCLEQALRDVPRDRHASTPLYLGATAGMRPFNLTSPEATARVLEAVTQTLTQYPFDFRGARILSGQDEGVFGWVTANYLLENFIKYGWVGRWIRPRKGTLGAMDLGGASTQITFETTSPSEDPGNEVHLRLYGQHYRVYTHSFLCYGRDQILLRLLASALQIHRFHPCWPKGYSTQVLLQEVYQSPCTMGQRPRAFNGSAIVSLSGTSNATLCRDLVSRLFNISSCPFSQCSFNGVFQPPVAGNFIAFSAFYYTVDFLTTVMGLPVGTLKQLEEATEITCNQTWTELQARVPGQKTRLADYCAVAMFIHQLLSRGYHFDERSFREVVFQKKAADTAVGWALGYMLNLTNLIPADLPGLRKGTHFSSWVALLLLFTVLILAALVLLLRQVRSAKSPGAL

[6] = molecular target: T3, rat NTPDase3 (Rattus norvegicus, UniProt A6I415); format: biochemical
T3 sequence (A6I415 1-529): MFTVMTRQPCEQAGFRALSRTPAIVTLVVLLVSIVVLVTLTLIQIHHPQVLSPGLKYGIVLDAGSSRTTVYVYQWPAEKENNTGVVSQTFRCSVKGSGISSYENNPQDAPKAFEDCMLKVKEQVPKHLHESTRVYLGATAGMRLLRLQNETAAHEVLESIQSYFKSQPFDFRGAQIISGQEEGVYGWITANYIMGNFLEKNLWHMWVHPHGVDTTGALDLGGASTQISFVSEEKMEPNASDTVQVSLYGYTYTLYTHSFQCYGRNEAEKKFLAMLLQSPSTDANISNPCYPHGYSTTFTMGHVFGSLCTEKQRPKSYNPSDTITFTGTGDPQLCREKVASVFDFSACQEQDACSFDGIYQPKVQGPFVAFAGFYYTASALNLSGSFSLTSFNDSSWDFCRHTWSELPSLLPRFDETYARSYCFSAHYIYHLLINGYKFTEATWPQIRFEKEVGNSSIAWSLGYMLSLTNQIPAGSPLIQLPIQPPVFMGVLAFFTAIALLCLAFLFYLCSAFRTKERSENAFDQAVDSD

[7] = tested on: mouse NTPDase1; settings: read-out: Reported Km mouse NTPDase1; ATP; cited from earlier work
[8] = tested on: human NTPDase1; settings: read-out: Reported Km human NTPDase1; ATP; cited from earlier work
[9] = tested on: human NTPDase3; settings: read-out: Reported Km human NTPDase3; ATP; respectively ref 32, 40; cited from earlier work
[10] = molecular target: T2, rat NTPDase2; format: biochemical; remark: listed apart in the source
[11] = tested on: rat superior cervical ganglionic cells; settings: at 10 µM concentration; cited from earlier work
[12] = molecular target: T1, rat NTPDase1; format: biochemical; remark: listed apart in the source
[13] = molecular target: T3, rat NTPDase3; format: biochemical; remark: listed apart in the source
[14] = substrate ATP, membrane preparation

SMILES: Nc1ncnc2c1ncn2[C@@H]1O[C@H](COP(=O)(O)OP(=O)(O)OP(=O)(O)O)[C@@H](O)[C@H]1O [ATP]
- Km [1]: 11 µM
- Km [2]: 75 µM
- Km [3]: 37 µM
- Km ([4]; read-out: Km ± SEM NTPDase1, substrate ATP 10-1000 µM, product AMP): 76 ± 12 µM
- Vmax ± SEM NTPDase1 [4, 14]: 0.023 ± 0.002 μmol/min/mg protein
- Km ([5]; read-out: Km ± SEM NTPDase2, substrate ATP 25-1000 µM, product ADP): 203 ± 8 µM
- Vmax ± SEM NTPDase2 [5, 14]: 0.021 ± 0.002 μmol/min/mg protein
- Km ([6]; read-out: Km ± SEM NTPDase3, substrate ATP 25-1000 µM, product ADP): 311 ± 4 µM
- Vmax ± SEM NTPDase3 [6, 14]: 0.010 ± 0.001 μmol/min/mg protein
- Km [7]: 12 µM
- Km [8]: 17 µM
- Km [9]: 75 µM and 128 µM

SMILES: OCCN(CCO)c1nc(N2CCCCC2)c2nc(N(CCO)CCO)nc(N3CCCCC3)c2n1 [Dipyridamole, dipyridamole]
- Ki [10]: > 1000 µM
- inhibition of ATP hydrolysis [11]: effective inhibitor
- Ki [12]: > 1000 µM
- Ki [13]: > 1000 µM

SMILES: Cc1ccc(C(=O)Nc2ccc(S(=O)(=O)O)c3cc(S(=O)(=O)O)cc(S(=O)(=O)O)c23)cc1NC(=O)c1cccc(NC(=O)Nc2cccc(C(=O)Nc3cc(C(=O)Nc4ccc(S(=O)(=O)O)c5cc(S(=O)(=O)O)cc(S(=O)(=O)O)c45)ccc3C)c2)c1 [Suramin, suramin]
- Ki for NTPDase1 relative to NTPDase2 ([12]; ratio of Ki values): five fold higher
